Results from patent US20220016115A1, “USP19 INHIBITORS FOR USE IN THERAPY” (ALMAC DISCOVERY LIMITED, priority 2018, published 2022).

Assays:
USP19 [1] = biological target: T1, USP19 (Homo sapiens, UniProt O94966); assay: Cell target engagement, neuroblastoma cell line; format: cell-based
T1 sequence (O94966 1-1318): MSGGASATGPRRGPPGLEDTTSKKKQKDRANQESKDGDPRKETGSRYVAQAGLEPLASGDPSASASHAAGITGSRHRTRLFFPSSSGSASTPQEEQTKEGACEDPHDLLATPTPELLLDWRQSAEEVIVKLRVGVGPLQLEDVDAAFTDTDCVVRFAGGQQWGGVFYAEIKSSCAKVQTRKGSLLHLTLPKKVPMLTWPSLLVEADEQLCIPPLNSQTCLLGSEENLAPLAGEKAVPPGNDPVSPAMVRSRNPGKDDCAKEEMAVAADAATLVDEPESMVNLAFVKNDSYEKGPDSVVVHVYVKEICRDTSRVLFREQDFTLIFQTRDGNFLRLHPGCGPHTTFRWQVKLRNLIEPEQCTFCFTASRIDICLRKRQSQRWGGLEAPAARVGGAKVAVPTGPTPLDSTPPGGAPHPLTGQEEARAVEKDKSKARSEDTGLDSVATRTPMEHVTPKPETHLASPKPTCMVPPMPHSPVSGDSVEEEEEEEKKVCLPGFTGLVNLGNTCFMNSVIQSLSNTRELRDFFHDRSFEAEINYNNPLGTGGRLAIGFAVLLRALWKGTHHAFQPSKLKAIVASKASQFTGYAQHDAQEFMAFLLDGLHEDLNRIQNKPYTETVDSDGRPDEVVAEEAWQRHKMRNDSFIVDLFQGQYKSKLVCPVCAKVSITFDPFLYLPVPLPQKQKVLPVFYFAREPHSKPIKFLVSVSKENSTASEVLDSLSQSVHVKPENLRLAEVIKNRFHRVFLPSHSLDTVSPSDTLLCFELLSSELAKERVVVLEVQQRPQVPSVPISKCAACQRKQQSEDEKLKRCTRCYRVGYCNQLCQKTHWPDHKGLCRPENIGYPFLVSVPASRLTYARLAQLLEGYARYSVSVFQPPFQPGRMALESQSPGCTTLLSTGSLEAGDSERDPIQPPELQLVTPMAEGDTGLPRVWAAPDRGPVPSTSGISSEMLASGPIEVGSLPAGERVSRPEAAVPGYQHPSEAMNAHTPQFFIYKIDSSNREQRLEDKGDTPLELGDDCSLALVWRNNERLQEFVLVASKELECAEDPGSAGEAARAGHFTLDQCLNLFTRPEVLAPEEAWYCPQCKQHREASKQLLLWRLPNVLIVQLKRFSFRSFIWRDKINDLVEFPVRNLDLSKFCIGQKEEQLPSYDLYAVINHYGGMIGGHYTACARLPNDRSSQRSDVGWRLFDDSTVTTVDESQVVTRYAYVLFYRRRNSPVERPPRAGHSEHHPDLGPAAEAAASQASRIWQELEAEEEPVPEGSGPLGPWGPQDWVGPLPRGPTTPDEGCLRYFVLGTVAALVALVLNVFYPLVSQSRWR
Experimental: (§1) Cells from a breast cancer cell line, a neuroblastoma cell line and a mouse skeletal muscle cell line were treated with a USP19 inhibitor compound (ADC-141, corresponding to Example 212 provided herein) for 2 hrs, lysed (lysis buffer: 50 mM Tris pH 7.4; 150 mM NaCl; 5 mM MgCl2; 0.5 mM EDTA; 0.5% NP40; 10% Glycerol; 2 mM DTT) and Ubiquitin-propargylamine (Ub-PA; UbiQ) or Ubiquitin-vinyl methyl ester (Ub-VME; Almac Sciences Scotland Limited) was then added. Samples were analysed by western blotting probing for USP19 (EC50 determined by densitometry).

[2] = tested on: diet-induced obese (DIO) mouse; assay: Diet-induced obesity mouse model: body weight, DEXA and carcass composition; format: in vivo
Experimental: To assess obesity and insulin resistance, a diet-induced obesity mouse model was used.
Male C57BL6/J mice were continuously provided with high-fat diet (D12451, 45% kcal as fat; Research Diets, New Jersey, USA) and filtered tap water ad libitum for the duration of the study. From day 0, mice were administered vehicle i.p. BID, USP19 inhibitor (ADC-141) i.p. BID at 5 mg/kg or 25 mg/kg, or positive control liraglutide 0.1 mg/kg s.c. BID. Mice were allocated to treatment groups to balance the groups on the basis of body weight, food and water intake prior to the start of treatment.
Body weight was measured daily. On Day 13, body composition was assessed by DEXA. On Day 15, fasting glucose and insulin levels were measured before and during an oral glucose tolerance test (OGTT) to assess improvements in glucose control. The OGTT was performed following an overnight fast. […] An OGTT was performed the following morning (approx. 16h post fast). Mice were dosed with vehicle or test compound (starting at 08.45) to a timed schedule 30 minutes prior to the administration of the glucose challenge (2.0 g/kg po). Blood samples were taken immediately prior to dosing (B1), immediately prior to glucose administration (B2) and 15, 30, 60 and 120 minutes after glucose administration.
After OGTT, mice were humanely killed and carcass composition was assessed. The carcass was weighed and stored frozen and the chemical composition of each carcass (fat, protein, water and ash) was determined using classical techniques. Carcass water was determined by freeze-drying the carcasses to constant weight for 2 weeks. Carcass fat was determined on samples of the dry powdered carcasses using a modified Soxhlet extraction protocol (petroleum ether at 40-60° C.) with a Tecator Soxtec 2050 system (Foss UK Ltd, Wheldrake, UK) according to the manufacturer's recommended protocol. Carcass protein was determined using a micro-Kjeldahl procedure on samples of the dry powdered carcasses using a Tecator 2012 digestion block and 2200 distilling unit (Foss UK Ltd). Residual carcass ash was determined by firing samples of the dry powdered carcasses at high temperatures using a muffle ashing furnace (Carbolite OAF 11/1). Repeat determinations of the chemical analysis parameters were performed if necessary (e.g. if the duplicate samples differed by more than 1%). Data for each body composition parameter (fat, protein, water and ash) was determined as g/carcass and % total. Final carcass weights were also analysed as a direct comparison.

USP19 [3] = biological target: T1, USP19; assay: Cell target engagement, breast cancer cell line; format: cell-based
Experimental: as §1

[4] = 2 hrs treatment, Ub-PA or Ub-VME probe, western blot
[5] = ADC-141 25 mg/kg ip bid, liraglutide 0.1 mg/kg sc bid
[6] = ADC-141 25 mg/kg ip bid, liraglutide 0.1 mg/kg sc bid, vs vehicle
[7] = DEXA, ADC-141 25 mg/kg ip bid, liraglutide 0.1 mg/kg sc bid

With C[C@H](CC1CCCCC1)C(=O)N1CC[C@@](O)(Cn2cc(C(=O)N3CCNCC3)c(-c3ccccc3)cc2=O)C2(CCCC2)C1 [ADC-141, 1-(((S)-7-((R)-3-Cyclohexyl-2-methylpropanoyl)-10-hydroxy-7-azaspiro[4.5]decan-10-yl)methyl)-4-phenyl-5-(piperazine-1-carbonyl)pyridin-2(1H)-one] the cell permeability (USP19 [1]) was “good cell permeability”, the “EC50 (USP19 target engagement, densitometry)” value (USP19 [1]; [4]) was “low nanomolar” and the “relative water content of the carcass (percentage of total carcass mass)” value ([2]; ADC-141 5 mg/kg ip bid) was “no effect”. The “carcass water content (g)” value ([2]; ADC-141 5 mg/kg ip bid, vs vehicle) was “no significant effect”, the carcass protein ([2]; ADC-141 5 mg/kg ip bid, vs vehicle-treated animals) was “no significant changes” and the carcass percentage fat ([2]; ADC-141 25 mg/kg ip bid) was −14.6%. For the same molecule, the “differences in body weights on the final day of the study” value [2, 5] was about 13%, the “loss of fat as share of the total weight lost” value [2, 5] was 79% and the “percent protein (percentage of total carcass mass), increase” value [2, 5] was 6.0%. The “reduction in carcass fat (g) from controls” value [2, 5] was 24.9%, the “relative water content of the carcass (percentage of total carcass mass)” value [2, 5] was “+11.4%” and the “carcass ash content (g)” value [2, 6] was −9.6%. For the same molecule, the “carcass protein content (g)” value [2, 6] was −7.2%, the “carcass water content (g)” value [2, 6] was “no significant effect” and the “reduction in fat mass compared to vehicle treated controls” value ([2]; DEXA Day 13, liraglutide 0.1 mg/kg sc bid, dose of USP19 inhibitor not printed at place) was 24%. For the same molecule, the “lean body mass change” value ([2]; DEXA Day 13, vs vehicle, not significant (p>0.05)) was −3%, the total tissue mass ([2]; DEXA analysis) was “significant reduction” and the “fat mass % (percentage of total tissue mass)” value [2, 7] was “significantly decreased”. The “lean mass % (percentage of total tissue mass)” value [2, 7] was “increased”, the “cumulative and average food intake” value ([2]; compared to vehicle control mice (p<0.001)) was “reduction” and the “carcass weight compared to vehicle-treated controls” value ([2]; two weeks, ADC-141 25 mg/kg ip bid, liraglutide 0.1 mg/kg sc bid) was about −12%. The “average weekly body weight gain” value ([2]; week 1, ADC-141 25 mg/kg ip bid, liraglutide 0.1 mg/kg sc bid, vs vehicle) was “significantly decreased”, the “average weekly body weight gain” value ([2]; week 2, ADC-141 25 mg/kg ip bid, liraglutide 0.1 mg/kg sc bid, vs vehicle) was “significantly decreased” and the cell permeability (USP19 [3]) was “good cell permeability”. The “EC50 (USP19 target engagement, densitometry)” value (USP19 [3]; [4]) was “low nanomolar”.
